From patent US20240174624A1, “CHIRAL N-(1,3,4-OXADIAZOLE-2-YL)PHENYL CARBOXYLIC ACID AMIDES AND THEIR USE AS HERBICIDES” (Bayer Aktiengesellschaft, priority 2021, published 2024)

Tests used:
ALOMY = experiment: Pre-emergence herbicidal action; type: in vivo, Alopecurus myosuroides; settings: for Herbicidal action against ALOMY: 20 g a.i./ha, comparative experiment; for Pre-emergence action against ALOMY: scored after 3 weeks
From the text: (§1) Seeds of monocotyledonous and dicotyledonous weed plants and crop plants are laid out in sandy loam soil in wood-fibre pots and covered with soil. The compounds of the invention, formulated in the form of wettable powders (WP) or as emulsion concentrates (EC), are then applied to the surface of the covering soil in the form of an aqueous suspension or emulsion at a water application rate equivalent to 600 to 800 l/ha, with addition of 0.2% wetting agent. After the treatment, the pots are placed in a greenhouse and kept under good growth conditions for the trial plants. The damage to the test plants is scored visually after a test period of 3 weeks by comparison with untreated controls (herbicidal activity in percent (%): 100% activity=the plants have died, 0% activity=like control plants). […] The tables below illustrate, in an illustrative manner, the post-emergence herbicidal action of the compounds of the invention, the herbicidal activity being stated in percent. In the experiments that follow, the herbicidal action of the compounds of the invention and that of the corresponding known racemic compounds closest from WO2012126932 and WO2018202535 were compared under the above-specified conditions by the pre-emergence and post-emergence method. The example numbers given in the tables relate to the compounds disclosed in the respective documents.

AVEFA = experiment: Pre-emergence herbicidal action; type: in vivo, Avena fatua; settings: for Herbicidal action against AVEFA: 20 g a.i./ha, comparative experiment
From the text: as §1

MATIN [1] = experiment: Pre-emergence herbicidal action; type: in vivo, Matricaria inodora; settings: for Pre-emergence action against MATIN: scored after 3 weeks
From the text: as §1

POLCO = experiment: Pre-emergence herbicidal action; type: in vivo, Polygonum convolvulus
From the text: as §1

SETVI [2] = experiment: Pre-emergence herbicidal action; type: in vivo, Setaria viridis; settings: for Pre-emergence action against SETVI: scored after 3 weeks
From the text: as §1

STEME [3] = experiment: Pre-emergence herbicidal action; type: in vivo, Stellaria media; settings: comparative experiment
From the text: as §1

VERPE [4] = experiment: Pre-emergence herbicidal action; type: in vivo, Veronica persica; settings: for Herbicidal action against VERPE: comparative experiment
From the text: as §1

CYPES [5] = experiment: Pre-emergence herbicidal action; type: in vivo, Cyperus esculentus; settings: 20 g a.i./ha, comparative experiment
From the text: as §1

ZEAMX [6] = experiment: Pre-emergence damage to crop plants; type: in vivo, Zea mays; settings: comparative experiment; for Damage to ZEAMX: 80 g a.i./ha
From the text: as §1

SETVI [7] = experiment: Post-emergence herbicidal action; type: in vivo, Setaria viridis; settings: for Post-emergence action against SETVI: assessed after about 3 weeks
Method: (§2) Seeds of monocotyledonous and dicotyledonous weed and crop plants are laid out in sandy loam soil in wood-fibre pots, covered with soil and cultivated in a greenhouse under good growth conditions. 2 to 3 weeks after sowing, the test plants are treated at the one-leaf stage. The compounds of the invention, formulated in the form of wettable powders (WP) or as emulsion concentrates (EC), are then sprayed onto the green parts of the plants in the form of an aqueous suspension or emulsion at a water application rate equating to 600 to 800 l/ha, with addition of 0.2% wetting agent. After the test plants have been left to stand in the greenhouse under optimal growth conditions for about 3 weeks, the action of the preparations is assessed visually in comparison to untreated controls (herbicidal action in percent (%): 100% activity=the plants have died, 0% activity=like control plants). […] The tables below illustrate, in an illustrative manner, the post-emergence herbicidal action of the compounds of the invention, the herbicidal activity being stated in percent. In the experiments that follow, the herbicidal action of the compounds of the invention and that of the corresponding known racemic compounds closest from WO2012126932 and WO2018202535 were compared under the above-specified conditions by the pre-emergence and post-emergence method. The example numbers given in the tables relate to the compounds disclosed in the respective documents.

STEME [8] = experiment: Post-emergence herbicidal action; type: in vivo, Stellaria media; settings: 5 g a.i./ha, comparative experiment
Method: as §2

VERPE [9] = experiment: Post-emergence herbicidal action; type: in vivo, Veronica persica; settings: 5 g a.i./ha, comparative experiment
Method: as §2

CYPES [10] = experiment: Post-emergence herbicidal action; type: in vivo, Cyperus esculentus; settings: 20 g a.i./ha, comparative experiment
Method: as §2, with “The example numbers given in the tables relate to the compounds disclosed in the respective documents.” left out

ZEAMX [11] = experiment: Post-emergence damage to crop plants; type: in vivo, Zea mays; settings: 20 g a.i./ha, comparative experiment
Method: as §2

LOLRI [12] = experiment: Pre-emergence herbicidal action; type: in vivo, Lolium rigidum; settings: for Herbicidal action against LOLRI: 20 g a.i./ha, comparative experiment
From the text: as §1

GLXMA = experiment: Pre-emergence damage to crop plants; type: in vivo, Glycine max; settings: comparative experiment
From the text: as §1

DIGSA [13] = experiment: Post-emergence herbicidal action; type: in vivo, Digitaria sanguinalis; settings: for Herbicidal action against DIGSA: 20 g a.i./ha, comparative experiment; for Post-emergence action against DIGSA: assessed after about 3 weeks
Method: as §2

LOLRI [14] = experiment: Post-emergence herbicidal action; type: in vivo, Lolium rigidum; settings: 20 g a.i./ha, comparative experiment
Method: as §2, with “The example numbers given in the tables relate to the compounds disclosed in the respective documents.” left out

TRZAS = experiment: Post-emergence damage to crop plants; type: in vivo, Triticum aestiva; settings: 20 g a.i./ha, comparative experiment
Method: as §2

BRSNW = experiment: Post-emergence damage to crop plants; type: in vivo, Brassica napus; settings: 20 g a.i./ha, comparative experiment
Method: as §2, with “The example numbers given in the tables relate to the compounds disclosed in the respective documents.” left out

AMARE [15] = experiment: Pre-emergence herbicidal action; type: in vivo, Amaranthus retroflexus; settings: scored after 3 weeks
From the text: as §1, with “percent.” for “percent. In the experiments that follow, the herbicidal action of the compounds of the invention and that of the corresponding known racemic compounds closest from WO2012126932 and WO2018202535 were compared under the above-specified conditions by the pre-emergence and post-emergence method. The example numbers given in the tables relate to the compounds disclosed in the respective documents.”

DIGSA [16] = experiment: Pre-emergence herbicidal action; type: in vivo, Digitaria sanguinalis; settings: scored after 3 weeks
From the text: as §1, with “percent.” for “percent. In the experiments that follow, the herbicidal action of the compounds of the invention and that of the corresponding known racemic compounds closest from WO2012126932 and WO2018202535 were compared under the above-specified conditions by the pre-emergence and post-emergence method. The example numbers given in the tables relate to the compounds disclosed in the respective documents.”

ECHCG [17] = experiment: Pre-emergence herbicidal action; type: in vivo, Echinochloa crus-galli; settings: 80 g/ha, scored after 3 weeks
From the text: as §1, with “percent.” for “percent. In the experiments that follow, the herbicidal action of the compounds of the invention and that of the corresponding known racemic compounds closest from WO2012126932 and WO2018202535 were compared under the above-specified conditions by the pre-emergence and post-emergence method. The example numbers given in the tables relate to the compounds disclosed in the respective documents.”

VIOTR = experiment: Pre-emergence herbicidal action; type: in vivo, Viola tricolor; settings: scored after 3 weeks
From the text: as §1, with “percent.” for “percent. In the experiments that follow, the herbicidal action of the compounds of the invention and that of the corresponding known racemic compounds closest from WO2012126932 and WO2018202535 were compared under the above-specified conditions by the pre-emergence and post-emergence method. The example numbers given in the tables relate to the compounds disclosed in the respective documents.”

AMARE [18] = experiment: Post-emergence herbicidal action; type: in vivo, Amaranthus retroflexus; settings: assessed after about 3 weeks
Method: as §2, with “percent.” for “percent. In the experiments that follow, the herbicidal action of the compounds of the invention and that of the corresponding known racemic compounds closest from WO2012126932 and WO2018202535 were compared under the above-specified conditions by the pre-emergence and post-emergence method. The example numbers given in the tables relate to the compounds disclosed in the respective documents.”

ECHCG [19] = experiment: Post-emergence herbicidal action; type: in vivo, Echinochloa crus-galli; settings: 20 g/ha, assessed after about 3 weeks
Method: as §2

MATIN [20] = experiment: Post-emergence herbicidal action; type: in vivo, Matricaria inodora; settings: 20 g/ha, assessed after about 3 weeks
Method: as §2, with “percent.” for “percent. In the experiments that follow, the herbicidal action of the compounds of the invention and that of the corresponding known racemic compounds closest from WO2012126932 and WO2018202535 were compared under the above-specified conditions by the pre-emergence and post-emergence method. The example numbers given in the tables relate to the compounds disclosed in the respective documents.”

[21] = 20 g a.i./ha, comparative experiment

## Cc1nnc(NC(=O)c2ccc(C(F)(F)F)c([S+](C)[O-])c2Cl)o1 (racemic) [2-360, from WO2012126932, 2-chloro-N-(5-methyl-1,3,4-oxadiazol-2-yl)-3-[(rac)-methylsulfinyl]-4-(trifluoromethyl)benzamide, reference compound]
ALOMY
  Herbicidal action against ALOMY: 30%
AVEFA
  Herbicidal action against AVEFA: 0%
MATIN [1]; [21]
  Herbicidal action against MATIN: 70%
POLCO; 320 g a.i./ha, comparative experiment
  Herbicidal action against POLCO: 20%
SETVI [2]; [21]
  Herbicidal action against SETVI: 50%
STEME [3]; 20 g a.i./ha
  Herbicidal action against STEME: 0%
STEME [3]; 80 g a.i./ha
  Herbicidal action against STEME: 70%
STEME [3]; 320 g a.i./ha
  Herbicidal action against STEME: 70%
VERPE [4]; 20 g a.i./ha
  Herbicidal action against VERPE: 0%
VERPE [4]; 80 g a.i./ha
  Herbicidal action against VERPE: 10%
CYPES [5]
  Herbicidal action against CYPES: 70%
ZEAMX [6]; 320 g a.i./ha
  Herbicidal action against ZEAMX: 60%
SETVI [7]; 5 g a.i./ha, comparative experiment
  Herbicidal action against SETVI: 80%
STEME [8]
  Herbicidal action against STEME: 0%
VERPE [9]
  Herbicidal action against VERPE: 20%
CYPES [10]
  Herbicidal action against CYPES: 50%
ZEAMX [11]
  Damage to ZEAMX: 20%

## Cc1nnc(NC(=O)c2ccc(C(F)(F)F)c([S+]([O-])C3CC3)c2Cl)o1 (racemic) [Racemate known from WO2012126932, 2-chloro-N-(5-methyl-1,3,4-oxadiazol-2-yl)-3-[(rac)-cyclopropylsulfinyl]-4-(trifluoromethyl)benzamide, reference compound]
ALOMY
  Herbicidal action against ALOMY: 0%
AVEFA
  Herbicidal action against AVEFA: 0%
LOLRI [12]
  Herbicidal action against LOLRI: 0%
ZEAMX [6]
  Damage to ZEAMX: 70%
GLXMA; 20 g a.i./ha
  Damage to GLXMA: 60%
GLXMA; 80 g a.i./ha
  Damage to GLXMA: 100%
DIGSA [13]
  Herbicidal action against DIGSA: 80%
VERPE [9]
  Herbicidal action against VERPE: 40%
LOLRI [14]
  Herbicidal action against LOLRI: 30%
ZEAMX [11]
  Damage to ZEAMX: 20%
TRZAS
  Damage to TRZAS: 40%
BRSNW
  Damage to BRSNW: 100%

## Cc1nnc(NC(=O)c2ccc(C(F)(F)F)c([S+]([O-])C3CC3)c2Cl)o1 (stereo in doubt) [Example I-4, 2-chloro-N-(5-methyl-1,3,4-oxadiazol-2-yl)-3-[(S)-cyclopropylsulfinyl]-4-(trifluoromethyl)benzamide]
ALOMY
  Herbicidal action against ALOMY: 80%
ALOMY; 20 g/ha
  Pre-emergence action against ALOMY: 80%
ALOMY; 80 g/ha
  Pre-emergence action against ALOMY: 100%
AMARE [15]; 20 g/ha
  Pre-emergence action against AMARE: 100%
AMARE [15]; 80 g/ha
  Pre-emergence action against AMARE: 100%
AVEFA
  Herbicidal action against AVEFA: 30%
AVEFA; 80 g/ha, scored after 3 weeks
  Pre-emergence action against AVEFA: 90%
DIGSA [16]; 20 g/ha
  Pre-emergence action against DIGSA: 100%
DIGSA [16]; 80 g/ha
  Pre-emergence action against DIGSA: 100%
ECHCG [17]
  Pre-emergence action against ECHCG: 100%
LOLRI [12]
  Herbicidal action against LOLRI: 50%
LOLRI [12]; 80 g/ha, scored after 3 weeks
  Pre-emergence action against LOLRI: 80%
MATIN [1]; 20 g/ha
  Pre-emergence action against MATIN: 80%
MATIN [1]; 80 g/ha
  Pre-emergence action against MATIN: 100%
POLCO; 80 g/ha, scored after 3 weeks
  Pre-emergence action against POLCO: 80%
SETVI [2]; 20 g/ha
  Pre-emergence action against SETVI: 100%
SETVI [2]; 80 g/ha
  Pre-emergence action against SETVI: 100%
VERPE [4]; 80 g/ha, scored after 3 weeks
  Pre-emergence action against VERPE: 100%
VIOTR; 20 g/ha
  Pre-emergence action against VIOTR: 100%
VIOTR; 80 g/ha
  Pre-emergence action against VIOTR: 100%
ZEAMX [6]
  Damage to ZEAMX: 50%
GLXMA; 20 g a.i./ha
  Damage to GLXMA: 40%
GLXMA; 80 g a.i./ha
  Damage to GLXMA: 80%
AMARE [18]; 5 g/ha
  Post-emergence action against AMARE: 100%
AMARE [18]; 20 g/ha
  Post-emergence action against AMARE: 100%
DIGSA [13]; 5 g/ha
  Post-emergence action against DIGSA: 90%
DIGSA [13]
  Herbicidal action against DIGSA: 100%
DIGSA [13]; 20 g/ha
  Post-emergence action against DIGSA: 100%
ECHCG [19]
  Post-emergence action against ECHCG: 90%
MATIN [20]
  Post-emergence action against MATIN: 80%
SETVI [7]; 5 g/ha
  Post-emergence action against SETVI: 100%
SETVI [7]; 20 g/ha
  Post-emergence action against SETVI: 100%
VERPE [9]
  Herbicidal action against VERPE: 60%
LOLRI [14]
  Herbicidal action against LOLRI: 60%
ZEAMX [11]
  Damage to ZEAMX: 0%
TRZAS
  Damage to TRZAS: 20%
BRSNW
  Damage to BRSNW: 80%
